“Also recorded” adds a separate entry of the source. Marks after values point to notes of the source that are not given here.
Legend:
human OAT4 [1] = molecular target: T1, human OAT4 (Homo sapiens, UniProt Q9NSA0); assay: OAT4-mediated cellular uptake kinetics (Michaelis–Menten) in OAT4-transfected vs control-transfected HEK293 cells; assay type: cell-based; conditions: OAT4-transfected minus control-transfected HEK293 cells, 1 min exposure, 1-300 µM; best-fit value (standard error)
T1 construct: expressed in transfected cells; host or cells: HEK293 cells transduced with recombinant baculovirus (CMV promoter)
T1 sequence (Q9NSA0 1-550): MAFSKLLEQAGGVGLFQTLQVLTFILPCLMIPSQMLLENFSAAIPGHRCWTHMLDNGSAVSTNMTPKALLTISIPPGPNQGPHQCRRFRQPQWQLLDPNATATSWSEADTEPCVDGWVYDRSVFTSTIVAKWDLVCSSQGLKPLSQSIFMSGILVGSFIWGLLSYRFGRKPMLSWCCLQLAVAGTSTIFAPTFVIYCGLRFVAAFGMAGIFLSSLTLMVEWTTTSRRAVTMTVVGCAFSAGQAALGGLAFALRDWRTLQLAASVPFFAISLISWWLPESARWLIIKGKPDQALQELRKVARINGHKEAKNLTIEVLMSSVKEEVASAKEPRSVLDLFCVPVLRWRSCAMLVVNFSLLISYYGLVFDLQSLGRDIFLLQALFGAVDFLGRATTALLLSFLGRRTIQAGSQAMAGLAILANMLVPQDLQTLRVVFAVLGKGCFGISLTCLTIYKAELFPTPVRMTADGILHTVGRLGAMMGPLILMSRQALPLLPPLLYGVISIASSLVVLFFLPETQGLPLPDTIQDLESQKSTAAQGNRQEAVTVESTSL
Method: (§4) OAT4- and control-transfected cells were exposed for 1 min to a range of PFAS concentrations (1, 3, 10, 30, 100 and 300 µM) and cellular amounts were determined.
(§5) OAT4-transfected cells and control-transfected cells were exposed for 1 min to a range of PFAS concentrations and cellular amounts were determined. Amounts obtained in control-transfected cells were subtracted from amounts obtained in OAT4-transfected cells to obtain OAT4-mediated cellular uptake rates.

human URAT1 = molecular target: T2, human URAT1 (Homo sapiens, UniProt Q96S37); assay: Screening of cellular PFAS accumulation in URAT1-transfected vs control-transfected HEK293 cells (PFAS mixture); assay type: cell-based; conditions: yes/no as identified in vitro in this study
T2 construct: expressed in transfected cells; host or cells: HEK293 cells transduced with recombinant baculovirus (CMV promoter)
T2 sequence (Q96S37 1-553): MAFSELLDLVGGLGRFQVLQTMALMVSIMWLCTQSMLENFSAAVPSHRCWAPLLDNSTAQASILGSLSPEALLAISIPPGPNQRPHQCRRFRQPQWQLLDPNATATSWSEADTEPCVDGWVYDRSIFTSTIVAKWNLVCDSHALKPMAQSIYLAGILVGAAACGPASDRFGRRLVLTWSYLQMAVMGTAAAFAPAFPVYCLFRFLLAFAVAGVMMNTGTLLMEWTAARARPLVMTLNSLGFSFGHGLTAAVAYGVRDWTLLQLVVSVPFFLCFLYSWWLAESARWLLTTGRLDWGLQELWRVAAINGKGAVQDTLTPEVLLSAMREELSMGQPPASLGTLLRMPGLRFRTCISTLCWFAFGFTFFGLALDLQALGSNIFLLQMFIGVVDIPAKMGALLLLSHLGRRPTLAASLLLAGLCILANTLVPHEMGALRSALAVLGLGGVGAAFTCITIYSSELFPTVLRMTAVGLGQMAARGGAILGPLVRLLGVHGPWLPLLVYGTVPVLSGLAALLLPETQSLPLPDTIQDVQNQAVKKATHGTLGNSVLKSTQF
Excerpt: (§1) The recombinant baculoviruses that contain the cDNA of human transporters OAT4 and URAT1 downstream of a cytomegalovirus (CMV) promotor were generated as previously described (Smeets et al. [2020]). As a negative control, baculovirus containing the gene for enhanced yellow fluorescence protein (eYFP) was produced similarly. Moreover, transduction of HEK293 cells and uptake assays were essentially performed as previously described (Smeets et al. [2020]). The culture medium was removed and cells were washed with buffer (HBSS plus 10 mM HEPES, pH 7.4). Uptake was initiated by replacing this solution with 150 µL of fresh transport buffer (HBSS (Life Technologies Invitrogen (Carlsbad, CA, USA))-HEPES (Sigma-Aldrich), pH 7.4) supplemented with the PFASs for 10 min. To terminate the reaction, transport buffer was replaced with 400 µL ice-cold HBSS-HEPES buffer containing 0.5% BSA (m/v; Roche Diagnostics GmbH (Mannheim, Germany)), after which the cells were washed twice with ice-cold HBSS-HEPES. Cellular PFAS concentrations were determined based on the method described by Rosenmai et al. ([2018]). Briefly, cells were solubilised in 250 µL lysis buffer and cell lysates were stored in Eppendorf tubes at − 80 °C and defrozen when needed for LC–MS analysis and for quantification of the protein concentration.
(§2) To 50 μL cell lysate, 850 μL methanol (Actu-All Chemicals, Oss, The Netherlands) containing internal standards (^13C4-PFHpA, ^13C4-PFOA, ^13C5-PFNA, ^13C2-PFDA, ^13C3-PFBS, ^18O2-PFHxS and ^13C4-PFOS (Wellington Laboratories, Canada) was added. These dilutions were vortexed well before centrifugation at maximum speed for 10 min at 4 °C. PFAS concentrations in the supernatant were determined using LC–MS/MS analysis. If required, samples were further diluted with methanol and containing internal standards. LC–MS/MS analysis was based on a Shimadzu UHPLC system containing: 2 pumps (LC 20AD xr); column oven (Shimadzu CTO-20AC); pump switch (Shimadzu FCV-11AL); degasser (Shimadzu DGU-20A3); and sample tray holder (Shimadzu SIL-20 AC XR model) (Shimadzu Corporation, Kyoto, Japan). An Acquity BEH-C18 analytical column (50 × 2.1 mm i.d., 1.7 μm, Waters, Milford, MA, USA) was used to separate the PFASs at a column temperature of 35 °C. In addition, a symmetry C18 analytical column (50 × 2.1 mm i.d., 5 µm, Waters, Milford, MA, USA) was used as a guard column, placed between the pump and the injector valve to isolate and delay interferences out of the LC system. The mobile phase consisted of 2 mM ammonium acetate (Merck Millipore, Darmstadt, Germany) in Milli-Q water (prepared using a Milli-Q system with a resistivity of at least 18.2 MΩ cm^−1 (Merck Millipore)) (mobile phase A) and Acetonitrile ULC/MS grade (Actu-All Chemicals, Oss, The Netherlands) (mobile phase B). The injection volume used was 20 μL. The chromatographic gradient was operated at a flow rate of 0.3 mL min^−1 starting from 25% mobile phase B in the first 0.1 min, a linear increase to 100% B in 6 min with a final hold of 2.5 min. The gradient was returned to 25% B within 0.1 min for 3.9 min to equilibrate before the next injection, resulting in a total run of 12.5 min.
(§3) Cellular PFAS content was normalised to cellular protein. To that end, from each cell lysate, 25 µL was used to determine the protein concentration (technical duplicate) using the Pierce BCA Protein Assay Kit (Thermo Scientific, Waltham, MA). First, samples were diluted two times with lysis buffer directly in a 96-wells plate (PS, F-bottom, clear; Greiner Bio-One, Alphen aan de Rijn, The Netherlands), and in each plate, a BSA standard curve (0.05–2 mg mL^−1 in lysis buffer) was included allowing protein quantification of the samples. The manufacturer’s protocol was followed for the subsequent steps and absorbance was measured using a microplate reader (Synergy™ HT BioTek, Winooski, VT) at 562 nm. […]

human OAT4 [2] = molecular target: T1, human OAT4; assay: Screening of cellular PFAS accumulation in OAT4-transfected vs control-transfected HEK293 cells (PFAS mixture); assay type: cell-based; conditions: for Transport by OAT4 (cellular PFAS level in OAT4-transfected vs control-transfected cells; substantial = at least twofold higher): PFAS mixture, each 1 µM, 10 min; for OAT4 substrate: yes/no as identified in vitro in this study
Excerpt: as §1, §2, §3

albumin = conditions: ref Allendorf et al. (2019); cited from earlier work
OAT4 [3] = test system: OAT4; set-up: method as in Yang et al. 2010; conditions: OAT4-expressing CHO cells; ref Yang et al. 2010; cited from earlier work
URAT1 [4] = test system: URAT1; set-up: method as in Yang et al. 2010; conditions: URAT1-expressing HEK293 cells; ref Yang et al. 2010; cited from earlier work
[5] = (average) serum half-life; ref Xu et al. (2020) for PFHpA; Olsen et al. (2007), Li et al. (2018), Xu et al. (2020) for PFOA, PFHxS, PFOS; Olsen et al. (2009) for PFBS; cited from earlier work
OAT4 [6] = test system: OAT4; set-up: method as in Kimura et al. 2002; Morrissey et al. 2012; conditions: probe substrate; ref Kimura et al. 2002; Morrissey et al. 2012; cited from earlier work
URAT1 [7] = test system: URAT1; set-up: method as in Iwanaga et al. 2005; Morrissey et al. 2012; conditions: probe substrate; ref Iwanaga et al. 2005; Morrissey et al. 2012; cited from earlier work
[8] = substrate: O=S(=O)(O)C(F)(F)C(F)(F)C(F)(F)C(F)(F)C(F)(F)C(F)(F)C(F)(F)C(F)(F)F; assay: cells, lysate or membranes; conditions: other: OAT4-transfected minus control-transfected HEK293 cells, 1 min exposure, 1-300 µM; best-fit value (standard error); pH 7.4
[9] = substrate: O=C(O)C(F)(F)C(F)(F)C(F)(F)C(F)(F)C(F)(F)C(F)(F)C(F)(F)C(F)(F)C(F)(F)F; assay: cells, lysate or membranes; conditions: other: OAT4-transfected minus control-transfected HEK293 cells, 1 min exposure, 1-300 µM; best-fit value (standard error); pH 7.4
[10] = substrate: O=C(O)C(F)(F)C(F)(F)C(F)(F)C(F)(F)C(F)(F)C(F)(F)C(F)(F)C(F)(F)F; assay: cells, lysate or membranes; conditions: other: OAT4-transfected minus control-transfected HEK293 cells, 1 min exposure, 1-300 µM; best-fit value (standard error); pH 7.4
[11] = substrate: O=C(O)C(F)(F)C(F)(F)C(F)(F)C(F)(F)C(F)(F)C(F)(F)F; assay: OAT4-mediated cellular uptake kinetics (Michaelis–Menten) in OAT4-transfected vs control-transfected HEK293 cells; assay type: cell-based, human; conditions: other: OAT4-transfected minus control-transfected HEK293 cells, 1 min exposure, 1-300 µM; best-fit value (standard error); pH 7.4
Method: as §4, §5

[12] = substrate: O=C(O)C(F)(F)C(F)(F)C(F)(F)C(F)(F)C(F)(F)C(F)(F)C(F)(F)F; assay: as above; assay type: cell-based, human; conditions: other: OAT4-transfected minus control-transfected HEK293 cells, 1 min exposure, 1-300 µM; best-fit value (standard error); pH 7.4
Method: as §4, §5

[13] = substrate: O=S(=O)(O)C(F)(F)C(F)(F)C(F)(F)C(F)(F)C(F)(F)C(F)(F)F; assay: as above; assay type: cell-based, human; conditions: other: OAT4-transfected minus control-transfected HEK293 cells, 1 min exposure, 1-300 µM; best-fit value (standard error); pH 7.4
Method: as §4, §5

Molecule: O=C(O)C(F)(F)C(F)(F)C(F)(F)C(F)(F)C(F)(F)C(F)(F)C(F)(F)C(F)(F)F [PFNA, perfluorononanoic acid]
- Apparent Vmax (human OAT4 [1]): 8.5 nmol min^−1 mg protein^−1
- URAT1 substrate (human URAT1): No
- Transport by OAT4 (cellular PFAS level in OAT4-transfected vs control-transfected cells; substantial = at least twofold higher) (human OAT4 [2]): substantial transport; also recorded: more than twofold increase
- OAT4 substrate (human OAT4 [2]): Yes
- Reported albumin/water partition coefficients (albumin): 4.3 L/kg

Molecule: O=C(O)C(F)(F)C(F)(F)C(F)(F)C(F)(F)C(F)(F)C(F)(F)C(F)(F)F [PFOA, perfluorooctanoic acid]
- Km (OAT4 [3]): 310 µM
- Vmax (OAT4 [3]): 37 nmol min^−1 mg protein^−1
- URAT1 substrate (human URAT1): No
- Transport by OAT4 (cellular PFAS level in OAT4-transfected vs control-transfected cells; substantial = at least twofold higher) (human OAT4 [2]): substantial transport; also recorded: more than twofold increase
- OAT4 substrate (human OAT4 [2]): Yes
- Reported albumin/water partition coefficients (albumin): 4.2 L/kg
- Km (URAT1 [4]): 64 µM
- Vmax (URAT1 [4]): 0.32 nmol min^−1 mg protein^−1
- Reported half-life in humans [5]: 1.8–3.8^c years

Molecule: O=S(=O)(O)C(F)(F)C(F)(F)C(F)(F)C(F)(F)C(F)(F)C(F)(F)C(F)(F)C(F)(F)F [PFOS, perfluorooctane sulfonate]
- Apparent Vmax (human OAT4 [1]): 2.2 nmol min^−1 mg protein^−1
- URAT1 substrate (human URAT1): No
- Transport by OAT4 (cellular PFAS level in OAT4-transfected vs control-transfected cells; substantial = at least twofold higher) (human OAT4 [2]): substantial transport; also recorded: more than twofold increase
- OAT4 substrate (human OAT4 [2]): Yes
- Reported albumin/water partition coefficients (albumin): 4.7 L/kg
- Reported half-life in humans [5]: 1.8–5.4^c years

Molecule: CCCCC[C@H](O)/C=C/[C@H]1[C@H](O)CC(=O)[C@@H]1C/C=C\CCCC(=O)O [Prostaglandin E2, prostaglandin E2]
- OAT4 substrate (OAT4 [6]): Yes

Molecule: O=c1[nH]c(=O)c2[nH]c(=O)[nH]c2[nH]1 [Uric acid, uric acid]
- URAT1 substrate (URAT1 [7]): Yes

B1: human OAT4 (Homo sapiens) (protein)
chain: MAFSKLLEQAGGVGLFQTLQVLTFILPCLMIPSQMLLENFSAAIPGHRCWTHMLDNGSAVSTNMTPKALLTISIPPGPNQGPHQCRRFRQPQWQLLDPNATATSWSEADTEPCVDGWVYDRSVFTSTIVAKWDLVCSSQGLKPLSQSIFMSGILVGSFIWGLLSYRFGRKPMLSWCCLQLAVAGTSTIFAPTFVIYCGLRFVAAFGMAGIFLSSLTLMVEWTTTSRRAVTMTVVGCAFSAGQAALGGLAFALRDWRTLQLAASVPFFAISLISWWLPESARWLIIKGKPDQALQELRKVARINGHKEAKNLTIEVLMSSVKEEVASAKEPRSVLDLFCVPVLRWRSCAMLVVNFSLLISYYGLVFDLQSLGRDIFLLQALFGAVDFLGRATTALLLSFLGRRTIQAGSQAMAGLAILANMLVPQDLQTLRVVFAVLGKGCFGISLTCLTIYKAELFPTPVRMTADGILHTVGRLGAMMGPLILMSRQALPLLPPLLYGVISIASSLVVLFFLPETQGLPLPDTIQDLESQKSTAAQGNRQEAVTVESTSL
notes: expressed in transfected cells; host or cells: HEK293 cells transduced with recombinant baculovirus (CMV promoter)
- Km [8]: 48 (24) µM
- Vmax [8]: 0.0022 µmol/min/mg
- Vmax/Km [8]: 46 µL min^−1 mg protein^−1
- Km [9]: 39 (15) µM
- Vmax [9]: 0.006 µmol/min/mg
- Vmax/Km [9]: 154 µL min^−1 mg protein^−1
- Km [10]: 58 (15) µM
- Vmax [10]: 0.0085 µmol/min/mg
- Vmax/Km [10]: 147 µL min^−1 mg protein^−1
- Km [11]: 60 (15) µM
- Vmax [11]: 0.0045 µmol/min/mg
- Vmax/Km [11]: 75 µL min^−1 mg protein^−1
- Km [12]: 47 (15) µM
- Vmax [12]: 0.0045 µmol/min/mg
- Vmax/Km [12]: 96 µL min^−1 mg protein^−1
- Km [13]: 92 (33) µM
- Vmax [13]: 0.0073 µmol/min/mg
- Vmax/Km [13]: 79 µL min^−1 mg protein^−1
